Measurements from patent publication US20150031655A1, “COMBINATION OF LIVER X RECEPTOR MODULATOR AND ESTROGEN RECEPTOR MODULATOR FOR THE TREATMENT OF AGE-RELATED DISEASES” (UNIVERSITY OF NORTH DAKOTA, priority 2011, published 2015).

Legend:
[1] = system: ERE-mediated transcription; experiment: Dual-luciferase ERE reporter assay (ER-mediated transcription); type: cell-based, human; details: SH-SY5Y transfected with ERE-luciferase, 24 h
Procedure: Constructs encoding ERE and TH promoter conjugated to the firefly luciferase gene were used in the study. Human neuroblastoma SH-SY5Y cells were plated in 96-well plates at a density of 2×10^4 cells/well.
The cells were transfected when 80% confluent with 0.25 μg of either ERE-firefly Luciferase reporter construct, LXRE-firefly Luciferase reporter construct, or TH promotor-firefly Luciferase promoter construct. Respective non-inducible reporter constructs containing constitutively expressing Renilla luciferase were used as negative internal controls. Constitutively expressing GFP constructs were used as positive control to determine transfection efficiency.
Cells were incubated for 24 hours with Opti-MEM serum free medium (Invitrogen, Carlsbad, Calif.) containing the reporter constructs dissolved in transfection reagent. After 24 hours the medium was changed and the cells were incubated in normal DMEM/F12 medium containing 10% FBS and cells were treated with the different treatment regimens.
The cells were treated in triplicate and harvested 24 hours later and subjected to dual-luciferases assay. The dual-luciferase assay was performed using a “Dual-Luciferase Reporter Assay System” from Promega (Madison, Wis.). The luminescence recorded is expressed as Relative Luminescence Units (RLU) and normalized to per mg protein. […]

[2] = target: T1, ERβ (Homo sapiens, UniProt Q92731); experiment: ChIP, ERβ binding to the ERE half site in the TH promoter; type: cell-based; details: SH-SY5Y, treatment alone vs control
T1 construct: endogenous in cells; host or cells: SH-SY5Y human neuroblastoma cells
T1 sequence (Q92731 whole entry): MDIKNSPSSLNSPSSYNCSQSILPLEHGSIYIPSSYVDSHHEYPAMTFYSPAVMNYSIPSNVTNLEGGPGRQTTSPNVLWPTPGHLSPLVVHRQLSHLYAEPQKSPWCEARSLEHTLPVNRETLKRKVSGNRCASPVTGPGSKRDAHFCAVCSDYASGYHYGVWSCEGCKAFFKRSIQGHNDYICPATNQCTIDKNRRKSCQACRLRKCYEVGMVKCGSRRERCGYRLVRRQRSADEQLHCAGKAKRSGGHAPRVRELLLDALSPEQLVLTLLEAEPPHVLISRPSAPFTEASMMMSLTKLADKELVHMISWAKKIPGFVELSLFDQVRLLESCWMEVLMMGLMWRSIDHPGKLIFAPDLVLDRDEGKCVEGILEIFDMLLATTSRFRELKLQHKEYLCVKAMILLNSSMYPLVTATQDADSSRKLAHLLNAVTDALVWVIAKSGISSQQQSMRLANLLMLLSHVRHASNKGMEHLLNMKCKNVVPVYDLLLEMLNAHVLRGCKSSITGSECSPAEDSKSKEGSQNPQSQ
Procedure: (§1) Human neuroblastoma SH-SY5Y cells were grown in DMEM/F12 medium containing 10% fetal bovine serum (FBS) and 1% antibiotic/antimycotic mix. Cells were maintained at 37° C. in a saturated humidity atmosphere containing 95% air and 5% CO2.
ChIP analysis was performed to evaluate the extent of ERα/ERβ and LXRα/LXRβ binding to the DNA elements in the TH promoter and α-synuclein promoter regions respectively using “SimpleChIP™ Enzymatic Chromatic IP kit” from Cell Signaling (Boston, Mass.).
Briefly, cells from each treatment group (3×10^6 cells) were washed with PBS, trypsinized, centrifuged at 5000 g. The pellet containing the cells was further washed with PBS and cross-linked using 37% formaldehyde for 15 min followed by the addition of glycine solution to cease the cross-linking reaction.
The cells were washed with 4× volumes of 1×PBS and centrifuged at ˜220 g for 5 min. The pellet was resuspended and incubated for 10 min in 5 ml of tissue lysis buffer containing DTT and protease and phosphatase inhibitors. The subsequent steps to isolate the cross-linked chromatin were performed according to the manufacturer's protocol.
The cross-linked chromatin from each sample was apportioned into four equal parts.

[3] = system: ARPE-19 cells; type: cell-based
Procedure: ARPE-19 cells were treated with 0, 10 or 25 μM 27-OHC for 24 hours.

[4] = system: TH promoter; experiment: Dual-luciferase TH promoter assay; type: cell-based, human; details: SH-SY5Y transfected with TH promoter-luciferase, 24 h
Procedure: Constructs encoding ERE and TH promoter conjugated to the firefly luciferase gene were used in the study. Human neuroblastoma SH-SY5Y cells were plated in 96-well plates at a density of 2×10^4 cells/well. The cells were transfected when 80% confluent with 0.25 μg of either ERE-firefly Luciferase reporter construct, LXRE-firefly Luciferase reporter construct, or TH promotor-firefly Luciferase promoter construct. Respective non-inducible reporter constructs containing constitutively expressing Renilla luciferase were used as negative internal controls. Constitutively expressing GFP constructs were used as positive control to determine transfection efficiency. Cells were incubated for 24 hours with Opti-MEM serum free medium (Invitrogen, Carlsbad, Calif.) containing the reporter constructs dissolved in transfection reagent. After 24 hours the medium was changed and the cells were incubated in normal DMEM/F12 medium containing 10% FBS and cells were treated with the different treatment regimens. The cells were treated in triplicate and harvested 24 hours later and subjected to dual-luciferases assay. The dual-luciferase assay was performed using a “Dual-Luciferase Reporter Assay System” from Promega (Madison, Wis.). The luminescence recorded is expressed as Relative Luminescence Units (RLU) and normalized to per mg protein. Unit value was assigned to control and the magnitude of differences among the samples is expressed relative to the unit value of control cells.

[5] = target: T1, ERβ; experiment: Western blot of ERβ levels in the nucleus (nuclear translocation), SH-SY5Y cells; type: cell-based; details: 24 h, treatment alone vs control
Procedure: as §1
Treated SH-SY5Y cells were washed with PBS and trypsinized to collect the cells and centrifuged at 5000 g. The pellet was washed again with PBS and homogenized in NE-PER tissue protein extraction reagent (Thermo Scientific, Rockford, Ill.) supplemented with protease and phosphatase inhibitors. Protein concentrations from the cytosolic and nuclear homogenates were determined with BCA protein assay.
Proteins (10 μg) were separated on SDS-PAGE gels, transferred to a polyvinylidene difluoride membrane (BioRad, Hercules, Calif.), and incubated with the following monoclonal antibodies: anti-TH mouse antibody (1:1000; Sigma Aldrich, Saint Louis, Mo.), anti-α-synuclein mouse antibody (1:500; Chemicon, Temecula, Calif.), anti-ERα rabbit antibody (1:500; Abcam, Cambridge, Mass.), anti-ERβ rabbit antibody (1:200; Upstate, Lake Placid, N.Y.), anti-LXRα rabbit antibody (1:500; Abcam, Cambridge, Mass.), anti-LXRβ mouse antibody (1:500; Abcam, Cambridge, Mass.).
β-actin and Lamin A were used as a gel loading control for cytosolic homogenates and nuclear homogenates respectively. The blots were developed with enhanced chemiluminescence (Immmun-star HRP chemiluminescent kit, Bio-Rad, Hercules, Calif.). Bands were visualized on a polyvinylidene difluoride membrane and analyzed by LabWorks 4.5 software on a UVP Bioimaging System (Upland, Calif.). Quantification of results was performed by densitometry and the results analyzed as total integrated densitometric values (arbitrary units).

[6] = system: TH mRNA; experiment: Real time RT-PCR of TH mRNA in SH-SY5Y cells; type: cell-based, human; details: 24 h, treatment alone vs control
Procedure: as §1
Total RNA was isolated and extracted from treated cells using the 5 prime “PerfectPure RNA tissue kit” (5 Prime, Inc., Gaithersburg, Md.). RNA estimation was performed using “Quant-iT RNA Assay Kit” using a Qubit fluorometer according to the manufacturer's protocol (Invitrogen, Carlsbad, Calif.). cDNA was synthesized by reverse transcribing 1 μg of extracted RNA using an “iScript cDNA synthesis kit” (BioRad, Hercules, Calif.). The oligomeric primers (Sigma, St Louis, Mo.) used to amplify the TH mRNA and α-synuclein mRNA are enumerated in Table 1. The cDNA amplification was performed using an iQ SYBR Green Supermix kit following the manufacturer's instructions (BioRad, Hercules, Calif.). The amplification was performed using an iCycler iQ Multicolor Real Time PCR Detection System (BioRad, Hercules, Calif.). The expression of specific TH and α-synuclein transcripts amplified were normalized to the expression of glyceraldehyde-3-phosphate dehydrogenase (GAPDH).

SMILES: C[C@@H](CO)CCC[C@@H](C)[C@H]1CC[C@H]2[C@@H]3CC=C4C[C@@H](O)CC[C@]4(C)[C@H]3CC[C@]12C [27-OHC, 27-hydroxycholesterol]
- decrease of ER-mediated transcription [1]: ~5 fold
- attenuation of ERβ binding to the ERE on the TH promoter [2]: 4 fold
- toxicity to RPE cells [3]: toxic
- Aβ peptide production ([3]; ARPE-19, 0, 10 or 25 μM, 24 hours): dose-dependently increased
- Ca^2+ homeostasis ([3]; ARPE-19, 10 or 25 μM, 24 hours): dyshomeostasis
- ROS generation ([3]; ARPE-19, 10 or 25 μM, 24 hours): ROS generation
- glutathione ([3]; ARPE-19, 10 or 25 μM, 24 hours): glutathione depletion
- levels of ER stress specific markers caspase 12 and gadd153 ([3]; ARPE-19, 10 or 25 μM, 24 hours): increased
- levels of NFκB and heme-oxygenase 1 (HO-1) ([3]; ARPE-19, 10 or 25 μM, 24 hours): increased
- mitochondrial membrane potential ([3]; ARPE-19, 10 or 25 μM, 24 hours): reduced
- reduction of TH promoter activity [4]: ~4 fold
- nuclear translocation / nuclear levels of ERβ [5]: decrease
- TH mRNA [6]: reduces
